Tests used:
[1] = tested on: Bifidobacterium bifidum ATCC #29521; assay: Bifidobacterium bifidum growth in media fortified with MSM, 96 hours; format: cell-based
[2] = tested on: MDCK cells (ATCC # CCL-34); assay: Cytotoxicity of MSM on host cells; settings: for Test Product Cytotoxicity: MDCK
Method: Determination of test product cytotoxicity. The highest non-cytotoxic concentration of the test product was determined prior to the test.
B. Toxicity Control for Pre-Treatment Test.

CS(C)(=O)=O [MSM, Methylsulfonylmethane]
Log Growth of Bifidobacteruim bifidum in Media Fortified with MSM ([1]; 0.125% MSM, Hr 72): 6.59 log | Log Growth of Bifidobacteruim bifidum in Media Fortified with MSM ([1]; 0.125% MSM, Hr 80): 9.12 log | Log Growth of Bifidobacteruim bifidum in Media Fortified with MSM ([1]; 0.125% MSM, Hr 88): 9.12 log | Log Growth of Bifidobacteruim bifidum in Media Fortified with MSM ([1]; 0.125% MSM, Hr 96): <6.00 log | logs higher than the maximum of the control ([1]; 0.5% MSM): 0.5 logs | logs higher than the control ([1]; 0.5% MSM, hour 96): approximately 2 logs | logs of growth ([1]; 0.5% MSM, hour 96): 8.82 logs | Log Growth of Bifidobacteruim bifidum in Media Fortified with MSM ([1]; 0.5% MSM, Hr 0): 1.00 log | Log Growth of Bifidobacteruim bifidum in Media Fortified with MSM ([1]; 0.5% MSM, Hr 8): 2.84 log | Log Growth of Bifidobacteruim bifidum in Media Fortified with MSM ([1]; 0.5% MSM, Hr 16): 7.45 log | Log Growth of Bifidobacteruim bifidum in Media Fortified with MSM ([1]; 0.5% MSM, Hr 24): 8.81 log | Log Growth of Bifidobacteruim bifidum in Media Fortified with MSM ([1]; 0.5% MSM, Hr 32): 11.22 log | Log Growth of Bifidobacteruim bifidum in Media Fortified with MSM ([1]; 0.5% MSM, Hr 40): 12.09 log | Log Growth of Bifidobacteruim bifidum in Media Fortified with MSM ([1]; 0.5% MSM, Hr 48): 9.39 log | Log Growth of Bifidobacteruim bifidum in Media Fortified with MSM ([1]; 0.5% MSM, Hr 56): 9.51 log | Log Growth of Bifidobacteruim bifidum in Media Fortified with MSM ([1]; 0.5% MSM, Hr 64): 10.34 log | Log Growth of Bifidobacteruim bifidum in Media Fortified with MSM ([1]; 0.5% MSM, Hr 72): 8.35 log | Log Growth of Bifidobacteruim bifidum in Media Fortified with MSM ([1]; 0.5% MSM, Hr 80): 10.38 log | Log Growth of Bifidobacteruim bifidum in Media Fortified with MSM ([1]; 0.5% MSM, Hr 88): 9.70 log | Log Growth of Bifidobacteruim bifidum in Media Fortified with MSM ([1]; 0.5% MSM, Hr 96): 8.82 log | logs of growth (estimated, outside the countable range) ([1]; 1% MSM, Hour 96): less than 6 logs | Log Growth of Bifidobacteruim bifidum in Media Fortified with MSM ([1]; 1% MSM, Hr 0): 1.00 log | Log Growth of Bifidobacteruim bifidum in Media Fortified with MSM ([1]; 1% MSM, Hr 8): 2.73 log | Log Growth of Bifidobacteruim bifidum in Media Fortified with MSM ([1]; 1% MSM, Hr 16): 7.73 log | Log Growth of Bifidobacteruim bifidum in Media Fortified with MSM ([1]; 1% MSM, Hr 24): 8.81 log | Log Growth of Bifidobacteruim bifidum in Media Fortified with MSM ([1]; 1% MSM, Hr 32): 11.49 log | Log Growth of Bifidobacteruim bifidum in Media Fortified with MSM ([1]; 1% MSM, Hr 40): 11.19 log | Log Growth of Bifidobacteruim bifidum in Media Fortified with MSM ([1]; 1% MSM, Hr 48): 10.43 log | Log Growth of Bifidobacteruim bifidum in Media Fortified with MSM ([1]; 1% MSM, Hr 56): 10.57 log | Log Growth of Bifidobacteruim bifidum in Media Fortified with MSM ([1]; 1% MSM, Hr 64): 10.66 log | Log Growth of Bifidobacteruim bifidum in Media Fortified with MSM ([1]; 1% MSM, Hr 72): 8.34 log | Log Growth of Bifidobacteruim bifidum in Media Fortified with MSM ([1]; 1% MSM, Hr 80): 9.43 log | Log Growth of Bifidobacteruim bifidum in Media Fortified with MSM ([1]; 1% MSM, Hr 88): 10.41 log | Log Growth of Bifidobacteruim bifidum in Media Fortified with MSM ([1]; 1% MSM, Hr 96): <6.00 log | log increase of growth ([1]; 1% MSM, listed as order: Hour 80, Hour 88): 1 log | extension of the stationary phase ([1]; 5% MSM): 40 h | logs lower than the control ([1]; 5% MSM, Hour 48): 0.7 logs | Log Growth of Bifidobacteruim bifidum in Media Fortified with MSM ([1]; 5% MSM, Hr 0): 1.12 log | Log Growth of Bifidobacteruim bifidum in Media Fortified with MSM ([1]; 5% MSM, Hr 8): 2.04 log | Log Growth of Bifidobacteruim bifidum in Media Fortified with MSM ([1]; 5% MSM, Hr 16): 6.10 log | Log Growth of Bifidobacteruim bifidum in Media Fortified with MSM ([1]; 5% MSM, Hr 24): 8.43 log | Log Growth of Bifidobacteruim bifidum in Media Fortified with MSM ([1]; 5% MSM, Hr 32): 11.13 log | Log Growth of Bifidobacteruim bifidum in Media Fortified with MSM ([1]; 5% MSM, Hr 40): 11.78 log | Log Growth of Bifidobacteruim bifidum in Media Fortified with MSM ([1]; 5% MSM, Hr 48): 10.70 log | Log Growth of Bifidobacteruim bifidum in Media Fortified with MSM ([1]; 5% MSM, Hr 56): 10.59 log | Log Growth of Bifidobacteruim bifidum in Media Fortified with MSM ([1]; 5% MSM, Hr 64): 14.32 log | Log Growth of Bifidobacteruim bifidum in Media Fortified with MSM ([1]; 5% MSM, Hr 72): 8.65 log | Log Growth of Bifidobacteruim bifidum in Media Fortified with MSM ([1]; 5% MSM, Hr 80): 12.20 log | Log Growth of Bifidobacteruim bifidum in Media Fortified with MSM ([1]; 5% MSM, Hr 88): 12.31 log | Log Growth of Bifidobacteruim bifidum in Media Fortified with MSM ([1]; 5% MSM, Hr 96): 9.60 log | log increase of growth ([1]; […] MSM, Hour 88): 1 log | logs higher than the maximum of the control ([1]; […] MSM, maximum): 0.72 logs | Log Growth of Bifidobacteruim bifidum in Media Fortified with MSM ([1]; […] MSM, Hr 96): <6.00 log | logs higher in growth rate compared to the control ([1]; […] MSM, listed as order: hour 40, Hour 56 to hour 72): 0.7 logs | maximum growth reached before the control ([1]; all MSM concentrations (hour 32 vs hour 48)): 16 h | Test Product Cytotoxicity ([2]; 0.5%): 00 | Test Product Cytotoxicity ([2]; 1%): 00 | Test Product Cytotoxicity ([2]; 2%): 00 | Test Product Cytotoxicity ([2]; 3%): 00 | Test Product Cytotoxicity ([2]; 4%): 00 | Test Product Cytotoxicity ([2]; 5%): 00 | cytotoxic effect ([2]; MSM concentrations 6% through 0.5%): no visible cytotoxic effect

Source: patent publication US9487749B2 (priority 2009, dated 2016)
